The source made the active and inactive calls. No cut-off for these calls is given here.
Columns and labels:
[1] = Cytotoxicity against dog MDCK cells after 72 hrs incubation by MTT assay; type: toxicity, cell-based, Canis lupus familiaris
[2] = tested on: Influenza A virus; assay: Anti-influenza activity against influenza A virus H1NI (A/Weiss/43) infected in dog MDCK cells assessed as virus inhibition rate at 0.625 uM incubated for 72 hrs by MTT assay; type: functional, organism-based
[3] = tested on: Influenza A virus; assay: Anti-influenza activity against influenza A virus H1NI (A/Weiss/43) infected in dog MDCK cells assessed as virus inhibition rate at 100 uM incubated for 72 hrs by MTT assay; type: functional, organism-based
[4] = tested on: Influenza A virus; assay: Anti-influenza activity against influenza A virus H1NI (A/Weiss/43) infected in dog MDCK cells assessed as virus inhibition rate incubated for 72 hrs by MTT assay; type: functional, organism-based
[5] = tested on: Influenza A virus; assay: Anti-influenza activity against influenza A virus H1NI (A/Virginia/ATCC2/2009) infected in dog MDCK cells incubated for 72 hrs by MTT assay; type: functional, organism-based
[6] = Selectivity index, ratio of CC50 for dog MDCK cells to EC50 for antiviral activity against Influenza A virus H1N1 (A/Weiss/43) infected in MDCK cells; type: toxicity, cell-based
[7] = Selectivity index, ratio of CC50 for dog MDCK cells to EC50 for antiviral activity against Influenza A virus […] H3N2 (A/California/2014) infected in MDCK cells; type: toxicity, cell-based; details: read-out: Selectivity Index
[8] = tested on: Influenza A virus; assay: Anti-influenza activity against influenza A virus H3N2 (A/California/2014) infected in dog MDCK cells incubated for 72 hrs by MTT assay; type: functional, organism-based
[9] = Selectivity index, ratio of CC50 for dog MDCK cells to EC50 for antiviral activity against Influenza A virus H1NI (A/Virginia/ATCC2/2009) infected in MDCK cells; type: toxicity, cell-based; details: read-out: Selectivity Index
[10] = tested on: Influenza A virus; assay: Inhibition of influenza A virus infection induced apoptosis in MDCK cells infected with influenza virus assessed as viable cells at 50 uM incubated for 36 hrs by AnnexinV-FITC/PI staining based flow cytometry (reference value: 66.9%); type: functional
[11] = tested on: Influenza A virus; assay: Inhibition of influenza A virus infection induced apoptosis in MDCK cells infected with influenza virus assessed as early apoptotic cells at 50 uM incubated for 36 hrs by AnnexinV-FITC/PI staining based flow cytometry (reference value: 18.2%); type: functional; parameters: scale not given: the % may be the effect or the level left
[12] = tested on: Influenza A virus; assay: Inhibition of influenza A virus infection induced apoptosis in MDCK cells infected with influenza virus assessed as late apoptotic cells at 50 uM incubated for 36 hrs by AnnexinV-FITC/PI staining based flow cytometry (reference value: 13.2%); type: functional; parameters: scale not given: the % may be the effect or the level left
[13] = tested on: Influenza A virus; assay: Inhibition of influenza A virus infection induced apoptosis in MDCK cells infected with influenza virus assessed as necrotic cells at 50 uM incubated for 36 hrs by AnnexinV-FITC/PI staining based flow cytometry (reference value: 1.79%); type: functional; parameters: scale not given: the % may be the effect or the level left

Row | SMILES | CC50 at 72 h [1] | Virus inhibition rate at 0.625 uM [2] | Activity [3] | also measured
1 | Cc1ccc(S(=O)(=O)n2c(NS(C)(=O)=O)c(-c3cccc(Cl)c3)c3ccccc32)cc1 | 67.1 µM | Not_active | inactive | –
2 | Cc1ccc(S(=O)(=O)Nc2c(-c3ccccc3)c3ccccc3n2S(=O)(=O)c2ccc(C)cc2)cc1 | 414 µM | Not_active | inactive | –
3 | COc1ccc(S(=O)(=O)n2c(NS(C)(=O)=O)c(-c3ccccc3)c3ccccc32)cc1 | 12.6 µM | Not_active | inactive | –
4 | CS(=O)(=O)Nc1c(-c2ccccc2)c2ccccc2n1S(=O)(=O)c1ccc(Cl)cc1 | 14.6 µM | Not_active | inactive | –
5 | Cc1ccc(S(=O)(=O)n2c(NS(C)(=O)=O)c(-c3cccc(Br)c3)c3ccccc32)cc1 | 16.9 µM | Not_active | inactive | –
6 | Cc1ccc(S(=O)(=O)n2c(NS(C)(=O)=O)c(-c3ccccc3)c3ccccc32)cc1 | 59 µM | Not_active | inactive | –
7 | Cc1ccc(S(=O)(=O)n2c(NS(C)(=O)=O)c(-c3cccc(F)c3)c3ccccc32)cc1 | 55 µM | Not_active | inactive | –
8 | Cc1ccc(S(=O)(=O)n2c(NS(C)(=O)=O)c(-c3cccc(C)c3)c3ccccc32)cc1 | 16.5 µM | Not_active | inactive | –
9 | Cc1ccc(S(=O)(=O)n2c(NS(C)(=O)=O)c(-c3ccccc3)c3cc(F)ccc32)cc1 | 24.4 µM | Not_active | inactive | –
10 | Cc1ccc(S(=O)(=O)n2c(NS(=O)(=O)c3ccc([N+](=O)[O-])cc3)c(-c3ccccc3)c3ccccc32)cc1 | < 6.25 µM | Not_active | inactive | –
11 | COc1ccc2c(-c3ccccc3)c(NS(C)(=O)=O)n(S(=O)(=O)c3ccc(C)cc3)c2c1 | 31.6 µM | Not_active | inactive | –
12 | Cc1ccc(S(=O)(=O)n2c(NS(C)(=O)=O)c(-c3ccc(Br)cc3)c3ccccc32)cc1 | 13.2 µM | Not_active | inactive | –
13 | Cc1ccc(S(=O)(=O)n2c(NS(C)(=O)=O)c(-c3ccccc3Cl)c3ccccc32)cc1 | 20.9 µM | Not_active | inactive | –
14 | Cc1ccc(S(=O)(=O)n2c(NS(C)(=O)=O)c(-c3ccccc3)c3ccc(F)cc32)cc1 | 22.8 µM | Not_active | inactive | –
15 | Cc1ccc(S(=O)(=O)n2c(NS(C)(=O)=O)c(-c3ccccc3)c3c(C)cc(C)cc32)cc1 | 357 µM | Not_active | inactive | –
16 | Cc1ccc(-c2c(NS(C)(=O)=O)n(S(=O)(=O)c3ccc(C)cc3)c3ccccc23)cc1 | 14.1 µM | Not_active | inactive | –
17 | CCOC(=O)C1=C[C@@H](OC(CC)CC)[C@H](NC(C)=O)[C@@H](N)C1 [OSELTAMIVIR] | > 800 µM | – | – | EC50 [4]: 7.1 µM; EC50 ([5]; Influenza A virus, H1NI (A/Virginia/ATCC2/2009), MDCK, 72 h): 11.7 µM; selectivity ratio ([6]; read-out: Selectivity Index): > 107; selectivity ratio [7]: > 30.4; EC50 [8]: 26.3 µM; selectivity ratio [9]: > 68.6; Activity [10]: 91.7%; Activity [11]: 3.85%; Activity [12]: 2.33%; Activity [13]: 2.11%

Row | SMILES | CC50 at 72 h [1] | Virus inhibition rate at 0.625 uM [2] | Activity [3] | also measured
18 | Cc1ccc(S(=O)(=O)n2c(NS(C)(=O)=O)c(-c3ccccc3)c3cc(C)ccc32)cc1 | 21.3 µM | Not_active | inactive | –
19 | CS(=O)(=O)Nc1c(-c2ccccc2)c2ccccc2n1S(=O)(=O)c1ccccc1 | 36.4 µM | Not_active | inactive | –
20 | COc1ccc(S(=O)(=O)Nc2c(-c3ccccc3)c3ccccc3n2S(=O)(=O)c2ccc(C)cc2)cc1 | 434 µM | Not_active | inactive | –
21 | Cc1ccc(S(=O)(=O)n2c(NS(C)(=O)=O)c(-c3ccccc3F)c3ccccc32)cc1 | < 6.25 µM | Not_active | inactive | –
22 | Cc1ccc(S(=O)(=O)n2c(NS(C)(=O)=O)c(-c3cccs3)c3ccccc32)cc1 | 53.6 µM | Not_active | inactive | –
23 | Cc1ccc(S(=O)(=O)n2c(NS(C)(=O)=O)c(-c3ccccc3C)c3ccccc32)cc1 | 43 µM | Not_active | inactive | –
24 | Cc1ccc(S(=O)(=O)n2c(NS(C)(=O)=O)c(-c3ccc(F)cc3)c3ccccc32)cc1 | 41 µM | Not_active | inactive | –
25 | CS(=O)(=O)Nc1c(-c2ccccc2)c2ccccc2n1S(C)(=O)=O | 341 µM | Not_active | inactive | –
26 | Cc1ccc(S(=O)(=O)n2c(NS(C)(=O)=O)c(-c3ccccc3)c3cc(Cl)ccc32)cc1 | 12.8 µM | Not_active | inactive | –
27 | COc1ccc(-c2c(NS(C)(=O)=O)n(S(=O)(=O)c3ccc(C)cc3)c3ccccc23)cc1 | 43.6 µM | – | – | EC50 [4]: 2 µM; selectivity ratio ([6]; read-out: Ratio CC50/EC50): 21.8
28 | Cc1ccc(S(=O)(=O)n2c(NS(C)(=O)=O)c(-c3ccccc3)c3cc(Br)ccc32)cc1 | < 6.25 µM | Not_active | inactive | –
29 | CS(=O)(=O)Nc1c(-c2ccccc2)c2ccccc2n1S(=O)(=O)c1ccc([N+](=O)[O-])cc1 | 55.6 µM | Not_active | inactive | –
30 | Cc1ccc(S(=O)(=O)n2c(NS(C)(=O)=O)c(-c3ccc(Cl)cc3)c3ccccc32)cc1 | 14.8 µM | Not_active | inactive | –
31 | Cc1ccc(S(=O)(=O)n2c(NS(=O)(=O)c3ccccc3)c(-c3ccccc3)c3ccccc32)cc1 | 109 µM | Not_active | inactive | –
32 | NC(=O)c1ncn([C@@H]2O[C@H](CO)[C@@H](O)[C@H]2O)n1 [RIBAVIRIN] | 513 µM | – | – | EC50 [4]: 7.33 µM; EC50 ([5]; mdck): 8.2 µM; selectivity ratio ([6]; read-out: Selectivity Index): 70; selectivity ratio [7]: 40; EC50 [8]: 12.8 µM; selectivity ratio [9]: 62.6; Activity [10]: 92.8%; Activity [11]: 3.8%; Activity [12]: 1.62%; Activity [13]: 1.74%
33 | Cc1ccc(S(=O)(=O)n2c(NS(=O)(=O)c3ccc(Cl)cc3)c(-c3ccccc3)c3ccccc32)cc1 | < 6.25 µM | Not_active | inactive | –
34 | Cc1ccc(S(=O)(=O)n2c(NS(C)(=O)=O)c(-c3ccccc3)c3ccc(C)cc32)cc1 | 5.45 µM | Not_active | inactive | –

Source: ChEMBL document CHEMBL6087420, “Synthesis and pharmacodynamic evaluation of 2-aminoindole derivatives against influenza A virus in vitro/vivo” (Eur J Med Chem, 2025)
